From the NIST ThermoML archive (doi:10.1016/j.fluid.2006.01.024)
Numbers after ± are expanded uncertainties.

Columns and labels:
[1] = 298.2 K; 101.33 kPa; Liquid; Vibrating tube method
[2] = Boiling temperature at pressure P; conditions: 101.33 kPa; Liquid
[3] = refractive index (Na D-line) (dimensionless); conditions: 298.2 K; 101.33 kPa; Liquid; Abbe refractometer

Row | SMILES | mass density [1] [kg/m3] | Boiling temperature at pressure P [2] [°C] | refractive index [3]
1 | C1CC[C@H]2CCCC[C@@H]2C1 [trans-decahydronaphthalene] | 868.25 ± 0.15 | 187.20 ± 0.4 | 1.4682 ± 0.0016
2 | CCO [ethanol] | 785.2 ± 0.2 | 78.00 ± 0.4 | 1.3595 ± 0.0015
